Assay [1] addresses bacterial lysine riboswitches. The following applies: in vitro, Sudarsan et al. (2003), cited from earlier work.
The test system of a further assay is CP4. Put plainly: CP4 expression in stably transformed maize callus carrying a theophylline "off" "trans" riboswitch. The format is cell-based. The following applies: transformed cells treated with theophylline. The source says: "trans" riboswitches, similarly to the "cis" riboswitches described in Examples […], are useful in regulating transgenes. In a specific example, a transgenic plant including a "trans" riboswitch designed to regulate the glyphosate-resistance transgene CP4 as the target sequence is particularly useful in "trans" riboswitch-controlled applications parallel to that described in Example 23 (glyphosate as a ligand for ligand-activated herbicide resistance, or for control of herbicide resistant volunteers) and Example 24 (glyphosate as a chemical hybridization agent). To illustrate this approach, CP4 expression is suppressed in stably transformed maize callus. A modified transcribable DNA encoding an "off' "trans" riboswitch with theophylline as its ligand (Bayer and Smolke (2005) Nature Biotechnol., 23:337-343) is designed to target CP4 as a target sequence. Transcription of the theophylline riboswitch can be driven either by a pol II promoter (e. g., Figure 27A) or by pol III promoter (e. g., Figure 27B). The transcribable DNA is inserted into a binary vector (Figure 30) and co-transformed into maize callus under nptIII selection, generating stably transformed maize callus lines. CP4 expression is assayed in the transformed cells, where CP4 expression is observed to be suppressed in transformed cells that are treated with theophylline.

A further assay relates to LKR/SDH. The assay is described as follows: LKR/SDH expression in transformed maize cells carrying a theophylline "off" "trans" riboswitch. The assay is classed as cell-based. The following applies: transformed cells treated with theophylline. The protocol: Similarly, a "trans" riboswitch is used to control expression of an endogenous target sequence (lysine ketoglutarate reductase/saccharopine dehydrogenase gene, LKR/SDH) in stably transformed maize plants. A modified transcribable DNA encoding an "off' "trans" riboswitch with theophylline as its ligand (Bayer and Smolke (2005) Nature Biotechnol., 23:337-343) is designed to target at least one region of the LKR/SDH sequence, and co-transformed into maize callus. LKR/SDH expression is assayed in the resulting transformed cells, where LKR/SDH expression is observed to be suppressed in transformed cells that are treated with theophylline.

Where two headings read alike, the source gives them in different places.

Regarding `NCCCC[C@H](N)C(=O)O` [lysine], the Kd was approximately 1000 µM in assay [1] (read-out: Kd) and approximately 128 ppm in assay [1] (same value given in ppm).

For the molecule `Cn1c(=O)c2[nH]cnc2n(C)c1=O` [theophylline], in the assay with CP4, the CP4 expression result is “suppressed”. Also, the LKR/SDH expression result in the assay with LKR/SDH is “suppressed”.

These data come from patent EP2765189A1, “Recombinant DNA constructs and methods for controlling gene expression” (Monsanto Technology LLC, priority 2004, dated 2006).
